Article PMC6995558, “Biological Evaluation, Molecular Docking, and SAR Studies of Novel 2-(2,4-Dihydroxyphenyl)-1H- Benzimidazole Analogues” (Biomolecules, 2019)

Assays:
AChE = molecular target: T1, AChE (Homo sapiens, UniProt P22303); test: Kinetic characterization of AChE inhibition (Lineweaver–Burk); format: biochemical; settings: for υmax: AChE; for Type of AChE inhibition: Lineweaver–Burk plots analysis
T1 construct: Acetylcholinesterase (AChE, E.C. 3.1.1.7, from human erythrocytes); purchased Sigma-Aldrich (Steinheim, Germany); host or cells: human erythrocytes (natural source)
Procedure: The kinetic analysis was evaluated according to the Ellman’s method. Plots of 1/velocity versus the reciprocal substrate concentration were constructed at different final concentrations of the ATC iodide in the range of 100–10 µM. […] The tested medium contained DTNB solution (0.4 mg/mL), AChE solution (2 U/mL) or BuChE solution (4 U/mL), solution of the examined compound, and different concentrations of the ATC iodide substrate solution. Absorbance was detected at 412 nm at room temperature after 7 min. The obtained data were calculated and presented on the Lineweaver–Burk plot. The determined the Michaelis-Menten constant (KM) and the maximum velocity of the enzyme (υmax) values were used to define the type of enzyme inhibition.
The mechanism of AChE inhibition was investigated for inhibitors 1 and 5 as the most valuable compounds. […]

[1] = molecular target: T2, butyrylcholinesterase (BuChE, E.C. 3.1.1.8, from equine serum) (Equus caballus, UniProt P81908); test: biochemical; settings: means ± SD of three experiments; read-out: BuChE IC50
T2 construct: butyrylcholinesterase (BuChE, E.C. 3.1.1.8, from equine serum); purchased Sigma-Aldrich (Steinheim, Germany); host or cells: equine serum (natural source)
Procedure: (§1) The details were described previously.
(§2) Their potency was determined using the modified Ellman’s method and expressed as the half of maximal inhibitory concentration, IC50 [34].

[2] = RP-18 HPLC chromatography lipophilicity estimation; format: physicochemical; settings: for −S (slope): methanol/acetate buffer pH 4.0; for log kw (intercept): methanol/acetate buffer pH 4.0, extrapolated to pure water
Procedure: The Eurosil Bioselect C18 (5 μm, 300 × 4.6 mm) column was used as the stationary phase. The mobile phase consisted of different volume mixtures of methanol and 20 mM acetate buffer as the aqueous phase to give pH 4.0. The organic modifier concentration ranged from 0.30 to 0.75, depending on the structure of the compound at 0.05 (0.1) intervals. The flow rate was 0.5 cm^3·min^−1 at room temperature. Measurements were made at 292 nm. The retention time of an unretained solute (t0) was determined by the injection of a small amount of acetone dissolved in water. […] This is described by the Soczewiński–Wachtmeister dependence: log k = log kw + S (% organic modifier)(1) in which log kw is the retention factor of a solute with pure water as the mobile phase (intercept) and S is the regression curve (slope). The log k values were calculated as log k = log (tR − t0)/t0, where tR is the retention time of a solute and t0 is the retention time of an unretained solute.
To find the structure–activity relationships, some quantities of the compounds were estimated (Table 5). They included the lipophilicity parameter log kw obtained by RP-HPLC and calculated in silico log P, the topological polar surface area (tPSA), and the molar refractivity (MR) (Table 5). The log kw and S parameters obtained by the extrapolation technique are commonly used as lipophilicity descriptors.

[3] = In vitro antioxidant activity assay (DPPH radical scavenging); settings: DPPH 100 μM in methanol, 37 °C, 30 min; means ± SD of three experiments; read-out: IC50(DPPH) radical scavenging effect
Procedure: Antioxidant activity of each compound and standards (rutin) was assessed based on the radical scavenging effect of stable DPPH free radical. An amount of 10 μL of each tested compound or standard series of different concentrations (from 0.0 to 100 µM) was added to 9 mL of methanol solution of 2,2-diphenyl-1-picrylhydrazyl (DPPH) (100 μM). After incubation at 37 °C for 30 min, decrease in the absorbance of each solution was measured at 520 nm. The absorbance of the blank sample containing the same amount of DMSO and DPPH solution was also prepared and measured. All experiments were conducted in triplicate. The scavenging potential was compared with a solvent control (0% radical scavenging) and the standard compound. Radical scavenging activity (%AA) was calculated by the following formula: (%AA) = [(A0 − A1)/A0] × 100%(3) in which (A0) is the absorbance of the blank sample and (A1) is the absorbance of the tested compound (t = 30 min).
Reactive oxygen species are a causal factor in the process of aging and the cumulative damage has been associated with AD [45]. In this study, the DPPH radical scavenging activity of the newly synthesized compounds was estimated using the Brand-Williams method.

[4] = molecular target: T3, Amyloid β-peptide (1–42) (Aβ42) (Homo sapiens, UniProt P05067); test: biochemical; settings: ThT fluorescence, 24 h at 37 °C; means ± SD of three experiments; read-out: IC50(Aβ(1–42)) self-induced aggregation
T3 construct: Amyloid β-peptide, (1–42) (Aβ42), was purchased from Aldrich; purchased Aldrich
Procedure: Amyloid β-peptide, (1–42) (Aβ42), was purchased from Aldrich. Aβ42 was diluted in the phosphate buffer (pH 8.0) to obtain a 125.8 µM solution. The compounds under study were first dissolved in a small amount of methanol, and then further diluted in the phosphate buffer to the final concentration of 5–160 μM. To study the Aβ42 aggregation inhibition, the fluorescence emission of thioflavin T (ThT) was followed with curcumin as the reference compound [35, 36]. At first, the Aβ42 (10 μL) samples and the tested compounds (10 μL) were diluted with the phosphate buffer (60 μL) and then they were incubated for 24 h at 37 °C without stirring. As for the control, a sample of the peptide was incubated without the inhibitor. The tests were carried out in black, flat-bottom, 96-well plates. Then 20 µL of 2.5 µM ThT in 50 mM glycine–NaOH (pH 8.5) was added and incubated for 5 min. Fluorescence was monitored with the excitation at 446 nm and the emission at 490 nm. A time scan of fluorescence was performed and the intensity values reached the plateau (300 s). […]. The reported values were obtained as the mean ± SD of triplicate of three independent experiments.
Nowadays, the amyloid hypothesis has become the dominating paradigm for understanding AD [44]. Aβ(1–42) is the most amyloidogenic Aβ fragment found in the AD plaques. […].

[5] = molecular target: T4, Acetylcholinesterase (AChE, E.C. 3.1.1.7, from human erythrocytes) (Homo sapiens, UniProt P22303); test: biochemical; format: biochemical; settings: for Selectivity for AChE: IC50(BuChE)/IC50(AChE); for IC50: means ± SD of three independent experiments
T4 construct: Acetylcholinesterase (AChE, E.C. 3.1.1.7, from human erythrocytes); purchased Sigma-Aldrich (Steinheim, Germany); host or cells: human erythrocytes (natural source)
Procedure: as §1, §2

BuChE = molecular target: T5, BuChE (Equus caballus, UniProt P81908); test: Kinetic characterization of BuChE inhibition (Lineweaver–Burk); format: biochemical; settings: for υmax: BuChE; for Mechanism of BuChE inhibition: Lineweaver–Burk plots analysis
T5 construct: butyrylcholinesterase (BuChE, E.C. 3.1.1.8, from equine serum); purchased Sigma-Aldrich (Steinheim, Germany); host or cells: equine serum (natural source)
Procedure: The kinetic analysis was evaluated according to the Ellman’s method. Plots of 1/velocity versus the reciprocal substrate concentration were constructed at different final concentrations of the ATC iodide in the range of 100–10 µM. The studies were carried out using the final concentrations of 1 inhibitor: (AChE: 0.25, 1.0 µM; BuChE: 0.25, 1.2 µM) and 5 (AChE: 0.1, 1.0 µM; BuChE: 0.25, 0.55 µM) and without it. The tested medium contained DTNB solution (0.4 mg/mL), AChE solution (2 U/mL) or BuChE solution (4 U/mL), solution of the examined compound, and different concentrations of the ATC iodide substrate solution. Absorbance was detected at 412 nm at room temperature after 7 min. The obtained data were calculated and presented on the Lineweaver–Burk plot. The determined the Michaelis-Menten constant (KM) and the maximum velocity of the enzyme (υmax) values were used to define the type of enzyme inhibition.
The mechanism of AChE inhibition was investigated for inhibitors 1 and 5 as the most valuable compounds. The Lineweaver–Burk plots present 1/velocity versus 1/substrate concentrations in the range of 100–10 µM for compounds 5 (0.1, 1.0 µM) and 1 (0.25, 1.0 µM) and without inhibitors (0 µM) (Figure 2).

[6] = inhibitor concentration 0.25 µM

T5 sequence (P81908 whole entry): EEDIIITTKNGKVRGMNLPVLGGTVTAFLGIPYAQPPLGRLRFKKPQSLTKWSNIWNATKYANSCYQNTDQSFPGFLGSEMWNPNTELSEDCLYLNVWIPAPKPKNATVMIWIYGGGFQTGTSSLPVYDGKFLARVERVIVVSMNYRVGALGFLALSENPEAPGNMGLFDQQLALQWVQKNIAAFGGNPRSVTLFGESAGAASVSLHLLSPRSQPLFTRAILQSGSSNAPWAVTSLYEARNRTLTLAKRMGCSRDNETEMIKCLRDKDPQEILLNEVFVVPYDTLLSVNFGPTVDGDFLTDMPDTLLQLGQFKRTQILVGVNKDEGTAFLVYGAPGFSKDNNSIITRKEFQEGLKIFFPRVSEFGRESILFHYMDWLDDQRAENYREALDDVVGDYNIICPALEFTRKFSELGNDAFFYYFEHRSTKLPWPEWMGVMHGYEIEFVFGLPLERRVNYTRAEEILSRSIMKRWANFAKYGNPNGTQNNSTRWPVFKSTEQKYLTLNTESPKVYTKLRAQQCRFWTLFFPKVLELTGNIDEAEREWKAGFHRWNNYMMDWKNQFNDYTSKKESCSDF
T1 sequence (P22303 32-617 isoform P22303-2 limits assumed): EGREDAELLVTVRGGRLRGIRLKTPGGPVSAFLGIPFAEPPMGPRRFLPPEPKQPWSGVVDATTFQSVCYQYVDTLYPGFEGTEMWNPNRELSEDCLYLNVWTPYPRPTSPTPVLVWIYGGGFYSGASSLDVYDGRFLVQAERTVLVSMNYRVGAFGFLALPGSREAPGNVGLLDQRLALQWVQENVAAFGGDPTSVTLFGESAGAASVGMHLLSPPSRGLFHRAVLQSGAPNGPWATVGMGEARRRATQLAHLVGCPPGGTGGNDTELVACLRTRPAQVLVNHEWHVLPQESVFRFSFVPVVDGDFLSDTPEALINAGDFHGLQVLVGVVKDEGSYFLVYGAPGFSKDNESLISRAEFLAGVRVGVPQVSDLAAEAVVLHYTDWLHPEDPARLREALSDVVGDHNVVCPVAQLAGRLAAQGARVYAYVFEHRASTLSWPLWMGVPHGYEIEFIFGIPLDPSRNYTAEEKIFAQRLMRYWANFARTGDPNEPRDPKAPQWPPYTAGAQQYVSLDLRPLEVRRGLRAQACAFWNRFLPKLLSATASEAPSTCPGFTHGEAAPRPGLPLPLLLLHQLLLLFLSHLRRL
T4 sequence (P22303 32-617 isoform P22303-2 limits assumed): as above
T3 sequence (P05067 672-713 limits assumed): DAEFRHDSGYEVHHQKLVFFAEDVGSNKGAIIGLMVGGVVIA
T2 sequence (P81908 whole entry): as the sequence (P81908 whole entry) above

| SMILES | υmax (AChE; inhibitor concentration 0.25 μM) [A min^−1] | υmax (AChE; inhibitor concentration 1.0 μM) [A min^−1] | Type of AChE inhibition (AChE) | IC50 [1] [nM] | −S (slope) [2] | log kw (intercept) [2] | IC50 [3] [nM] | IC50 [4] [µM] | Activity against AChE (in words) [5] | Selectivity for AChE [5] | IC50 [5] [nM] | υmax (BuChE; [6]) [A min^−1] | υmax (BuChE; inhibitor concentration 1.2 µM) [A min^−1] | Mechanism of BuChE inhibition (BuChE) | υmax (AChE; inhibitor concentration 0.15 μM) [A min^−1] | υmax (BuChE; inhibitor concentration 0.55 µM) [A min^−1] |
| --- | --- | --- | --- | --- | --- | --- | --- | --- | --- | --- | --- | --- | --- | --- | --- | --- |
| Oc1cc(O)c(-c2nc3ccccc3[nH]2)cc1Cl [Compound 1, 4-(1H-benzimidazol-2-yl)-6-chlorobenzene-1,3-diol] | 135.14 | 105.26 | mixed type of inhibition | 4240 ± 205 | 3.896 | 3.602 | 641 ± 30 | 48 ± 3.43 | active | 55.8 | 76 ± 2 | 322.58 | 163.93 | the same relationships as in the case of AChE |  |  |
| COc1ccc2nc(-c3ccc(O)c(C)c3O)[nH]c2c1 [Compound 5, 4-(6-Methoxy-1H-benzimidazol-2-yl)-2-methylbenzene-1,3-diol] |  | 120.48 | mixed type of inhibition | 117 ± 41 | 5.179 | 4.591 | 627 ± 110 | 33.1 ± 2.07 | active | 1.4 | 86 ± 21 | 196.08 |  | the same relationships as in the case of AChE | 175.44 | 178.57 |
